Measurements published in publication PMC3740200 (Dalton transactions (Cambridge, England : 2003), 2012).
Like-named read-outs stand apart in the source and are kept apart here.

Legend:
[1] = biological target: W156F DaCld (Dechloromonas aromatica, UniProt Q47CX0, W190F); assay: Equilibrium binding of heme ligands
[2] = biological target: DaCld(W227F) (Dechloromonas aromatica, UniProt Q47CX0, W261F); assay: Equilibrium binding of heme ligands
[3] = biological target: WT DaCld; details: cited from earlier work

Sequence of DaCld(W227F) (Q47CX0 32-282 W261F): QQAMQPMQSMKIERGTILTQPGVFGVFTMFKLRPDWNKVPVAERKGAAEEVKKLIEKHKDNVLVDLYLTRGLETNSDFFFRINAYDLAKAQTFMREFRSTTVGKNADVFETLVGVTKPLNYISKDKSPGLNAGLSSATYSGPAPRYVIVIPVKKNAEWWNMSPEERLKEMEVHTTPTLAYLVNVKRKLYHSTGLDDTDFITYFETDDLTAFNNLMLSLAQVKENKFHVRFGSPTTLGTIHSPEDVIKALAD
Sequence of W156F DaCld (Q47CX0 32-282 W190F): as the sequence (Q47CX0 32-282 W261F) above, with W159F, F230W counted along it

Q: Which results are given for `[N-]=[N+]=[N-]` [N3^-, azide]?
A: Kd ([1]; pH 7): 34.5 ± 3.1 µM; Kd ([2]; pH 7): 7 ± 0.3 µM; Kd ([3]; pH 7): 8.3 ± 0.1 µM

Q: Which Kd [1] does the source give for `c1c[nH]cn1` [Imidazole] here?
A: 26.6 ± 3.5 µM

Q: What about the Kd [2] of the same compound?
A: 17.5 ± 1.5 µM

Q: What about the Kd ([3]; pH 7, 100 mM phosphate, 25 °C, ref [16]) of the same compound?
A: 9.6 ± 0.3 µM

Q: With `F` [F^-, fluoride] as the compound, how does the Kd [2] read?
A: 3800 ± 900 µM

Q: What about the Kd ([3]; pH 7) of the same compound?
A: 15000 ± 1000 µM
